Calls of active or inactive are those of the source. How the calls were made is not given here.

Carcinogen call data for four compounds are collected here from PubChem BioAssay AID1259411 (Chemical Carcinogenesis Research Information System (CCRIS), 2018).

The subject of this data set is rodent carcinogenicity bioassays, tumor incidence. In words: CCRIS carcinogenicity studies. The method in brief:
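NCI-built, expert-reviewed records of carcinogenicity and related test outcomes (mutagenicity, tumor promotion/inhibition) compiled from published and report sources, historical span 1985-2011, not updated.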

Regarding `O=NN1CCC[C@H]1c1cccnc1`, the carcinogen call reads like this: (Species: HAMSTER, Route: SUBCUTANEOUS, Tumor Site: Type of Lesion: TRACHEA) “active; positive”; (Species: MINK, Strain/Sex: MALE, FEMALE, Route: SUBCUTANEOUS, Dose: 0, 11.9 MILLIMOLAR (TOTAL DOSE) GIVEN IN SUBDOSES 2/WK FOR 38 WK (STUDY DURATION: 185 WK), Tumor Site: Type of Lesion: NASAL CAVITY: TUMORS) “active; positive”; (Species: MOUSE, Route: INTRAPERITONEAL, Tumor Site: Type of Lesion: LUNG) “active; positive”; (Species: MOUSE, Strain/Sex: CFLP/FEMALE, Route: DERMAL, Dose: 0, 12.5, 50, 200 UG IN ACETONE 2 D/WK FOR 104 WK (STUDY DURATION: 24 MO), Dose: 0, 12.5, 50, 200 UG IN ACETONE 2 D/WK FOR 104 WK (STUDY DURATION: 24 MO)) “inactive; negative”; (Species: MOUSE, Strain/Sex: STRAIN-A/FEMALE, Route: INTRAPERITONEAL, Dose: 0, 40, 200 UMOL TOTAL DOSE ADMINISTERED IN SUBDOSES 3/WK FOR 7 WK (STUDY DURATION: 37 WK), Dose: 0, 40, 200 UMOL TOTAL DOSE ADMINISTERED IN SUBDOSES 3/WK FOR 7 WK (STUDY DURATION: 37 WK), Tumor Site: Type of Lesion: LUNG: TUMOR) “active; positive”; (Species: RAT, Route: ORAL, Tumor Site: Type of Lesion: ESOPHAGUS, NASAL CAVITY) “active; positive”. Also, the carcinogen call runs as follows: (Species: RAT, Strain/Sex: F344/FEMALE, Route: SUBCUTANEOUS, Dose: 0, 1, 3, 9 MMOL/KG BW (TOTAL DOSE) WITH SUBDOSES GIVEN 3/WK FOR 20 WK WITH A 2 WK INTERRUPTION AFTER 7 WK (STUDY DURATIO, Dose: 0, 1, 3, 9 MMOL/KG BW (TOTAL DOSE) WITH SUBDOSES GIVEN 3/WK FOR 20 WK WITH A 2 WK INTERRUPTION AFTER 7 WK (STUDY DURATIO, Tumor Site: Type of Lesion: NASAL CAVITY: TUMORS, ESOPHAGUS: BENIGN TUMORS) “active; positive”; (Species: RAT, Strain/Sex: F344/MALE, Route: SUBCUTANEOUS, Dose: 0, 1, 3, 9 MMOL/KG BW (TOTAL DOSE) WITH SUBDOSES GIVEN 3/WK FOR 20 WK WITH A 2 WK INTERRUPTION AFTER 7 WK (STUDY DURATIO, Dose: 0, 1, 3, 9 MMOL/KG BW (TOTAL DOSE) WITH SUBDOSES GIVEN 3/WK FOR 20 WK WITH A 2 WK INTERRUPTION AFTER 7 WK (STUDY DURATIO, Tumor Site: Type of Lesion: NASAL CAVITY: TUMORS, LUNG: TUMORS, ESOPHAGUS: BENIGN TUMORS, Tumor Site: Type of Lesion: NASAL CAVITY: TUMORS, LUNG: TUMORS, ESOPHAGUS: BENIGN TUMORS) “active; positive”.

In the case of `COc1ccc(C(=O)/C(Br)=C\C(=O)O)cc1`, the carcinogen call is, setting by setting: (Species: MOUSE, Strain/Sex: B6C3F1/FEMALE, Route: INTRAPERITONEAL, Dose: 0, 12, 24 MG/KG 3/WK FOR 104 WK (STUDY DURATION: 104-105 WK), Dose: 0, 12, 24 MG/KG 3/WK FOR 104 WK (STUDY DURATION: 104-105 WK)) “inactive; negative”; (Species: MOUSE, Strain/Sex: B6C3F1/MALE, Route: INTRAPERITONEAL, Dose: 0, 12, 24 MG/KG 3/WK FOR 104 WK (STUDY DURATION: 104-105 WK), Dose: 0, 12, 24 MG/KG 3/WK FOR 104 WK (STUDY DURATION: 104-105 WK)) “inactive; negative”; (Species: RAT, Strain/Sex: F344/FEMALE, Route: INTRAPERITONEAL, Dose: 0, 7, 14 MG/KG 3/WK FOR 104 WK (STUDY DURATION: 104-105 WK), Dose: 0, 7, 14 MG/KG 3/WK FOR 104 WK (STUDY DURATION: 104-105 WK), Tumor Site: Type of Lesion: MAMMARY GLAND: FIBROADENOMA) “active; positive”; (Species: RAT, Strain/Sex: F344/MALE, Route: INTRAPERITONEAL, Dose: 0, 7, 14 MG/KG 3/WK FOR 104 WK (STUDY DURATION: 104-105 WK), Dose: 0, 7, 14 MG/KG 3/WK FOR 104 WK (STUDY DURATION: 104-105 WK), Tumor Site: Type of Lesion: MULTIPLE SITES: MALIGNANT MESOTHELIOMA, TUNICA VAGINALIS: MESOTHELIOMA) “active; positive”.

For the compound `O=C(O)c1nn(Cc2ccc(Cl)cc2Cl)c2ccccc12`, the carcinogen call is, setting by setting: (Species: RAT, Strain/Sex: SPRAGUE-DAWLEY/FEMALE, Route: ORAL, Dose: 0, 20, 60, 180 MG/KG/D IN DIET FOR 2 YR (STUDY DURATION: 2 YR), Dose: 0, 20, 60, 180 MG/KG/D IN DIET FOR 2 YR (STUDY DURATION: 2 YR)) “inactive; negative”; (Species: RAT, Strain/Sex: SPRAGUE-DAWLEY/MALE, Route: ORAL, Dose: 0, 20, 60, 180 MG/KG/D IN DIET FOR 2 YR (STUDY DURATION: 2 YR), Dose: 0, 20, 60, 180 MG/KG/D IN DIET FOR 2 YR (STUDY DURATION: 2 YR)) “inactive; negative”.

On to `C=CCN(N)CC=C`, for which the carcinogen call runs as follows: (Species: MOUSE, Strain/Sex: SWISS/FEMALE, Route: ORAL, Dose: 0.03125% IN DRINKING WATER FOR LIFE, Tumor Site: Type of Lesion: LUNG: ADENOMA, ADENOCARCINOMA) “active; positive”; (Species: MOUSE, Strain/Sex: SWISS/MALE, Route: ORAL, Dose: 0.03125% IN DRINKING WATER FOR LIFE, Tumor Site: Type of Lesion: LUNG: ADENOMA, ADENOCARCINOMA, FORESTOMACH: SQUAMOUS CELL PAPILLOMA, CARCINOMA) “active; positive”.
